The conditions of this data set: for solubility: 25 °C.

logP and solubility data for 9 compounds are collected here from the OPERA property sets (Mansouri et al. 2018).

In brackets after ≈: the same amount, converted by molar mass.

The logP is the decadic logarithm of the partition coefficient of the neutral form, usually between octanol and water. Higher therefore signals higher lipophilicity. One may read the solubility as the dissolved amount per volume that the medium holds. High values mean much dissolved substance, low ones little dissolved substance.

As to `COc1cc(Cl)c(Cl)c(Cl)c1OC`, the logP was determined as 4.01 and the solubility was determined as 42.6 µM (≈ 10.3 µg/mL). `COc1cccc(Cl)c1`: the solubility came to 1650 µM (≈ 235 µg/mL). In turn, `COc1c(Cl)cccc1Cl` gave a logP of 3.14 and a solubility of 791 µM (≈ 140 µg/mL). As for `COc1cc(Cl)c(Cl)c(Cl)c1Cl`, the solubility was 5.49 µM (≈ 1.35 µg/mL). `COc1cc(Cl)c(Cl)cc1OC` gave a logP of 3.11 and a solubility of 348 µM (≈ 72 µg/mL). In turn, `COc1c(Cl)c(Cl)c(Cl)c(Cl)c1OC` showed a lipophilicity (logP) of 4.86 and a solubility of 5.76 µM (≈ 1.59 µg/mL). `COc1c(Cl)c(Cl)cc(Cl)c1Cl` came in with a solubility of 7.4 µM (≈ 1.82 µg/mL).

On to `COc1cccc(Cl)c1Cl`, for which the logP was found to be 3.24 and the solubility was 491 µM (≈ 86.9 µg/mL). For `COc1ccc(Cl)c(Cl)c1Cl`, the solubility was 51.1 µM (≈ 10.8 µg/mL).
